Read-outs that look alike come from different tables or passages of the source.

The test system of assay [1] is cellobiase from Aspergillus phoenicis. The conditions noted are these: Table 3; substrate cellobiose; as reported in the literature; cited from earlier work.
Assay [2] deals with cellobiase from Trichoderma reesei. The settings on record: Table 3; substrate cellobiose; as reported in the literature; cited from earlier work.
Assay [3] concerns purified cellobiase from Aspergillus terreus (ATCC 20514). Description: Km of purified cellobiase for cellobiose. It counts as biochemical. The settings on record: substrate cellobiose. As for the experimental part: The activity on cellobiose was determined by two different methods. In the first method 0.4 ml of the substrate, 12.5 mM cellobiose in 0.0625M sodium citrate buffer (pH 4.8), was preheated to 50° C., then 0.1 ml of the preheated enzyme solution was added to the substrate and the tubes stoppered. Each sample was incubated for 1.5 minutes placed in a boiling water bath for 30 seconds and then immediately cooled in an ice bath. This reaction mixture was added to 5 ml of the glucose oxidase reagent from a glucose assay kit (Sigma Chemical Co.) and the amount of glucose produced from cellobiose hydrolysis was determined spectrophometrically.
In the second method the amount of glucose produced was measured on a high pressure liquid chromatograph. The cellobiose substrate consisted of 0.03M cellobiose in 0.075M sodium citrate buffer (pH 4.8). The substrate and enzyme solution was preheated to 50° C., then 0.25 ml of the enzyme solution was added to 0.5 ml of the substrate and incubated for 10 minutes. […]
Using cellobiose as the substrate, the purified cellobiase enzyme from Aspergillus terreus was capable of producing 215 micromoles of glucose from cellobiose per minute per milligram of enzyme protein. […] The specific activity of our purified cellobiase is expressed as 215 units per mg protein. […]

For assay [4], the target named is T1, cellobiase from Alcaligenes faecalis (Agrobacterium sp., UniProt P12614).
T1 sequence (P12614 1-459): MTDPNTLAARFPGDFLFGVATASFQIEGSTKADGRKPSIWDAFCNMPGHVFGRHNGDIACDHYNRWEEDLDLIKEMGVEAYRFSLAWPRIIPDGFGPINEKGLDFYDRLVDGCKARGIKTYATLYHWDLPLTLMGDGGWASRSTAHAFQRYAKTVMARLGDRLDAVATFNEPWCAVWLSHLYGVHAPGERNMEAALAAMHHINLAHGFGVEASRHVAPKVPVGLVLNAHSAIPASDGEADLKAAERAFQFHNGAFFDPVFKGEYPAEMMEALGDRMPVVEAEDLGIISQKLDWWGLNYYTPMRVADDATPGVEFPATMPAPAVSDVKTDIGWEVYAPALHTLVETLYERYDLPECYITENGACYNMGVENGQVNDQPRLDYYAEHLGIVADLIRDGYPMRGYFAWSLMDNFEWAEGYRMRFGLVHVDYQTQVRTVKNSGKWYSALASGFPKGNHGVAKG
The settings on record: read-out: Ki (molar); Table 4; inhibitor glucose; type of inhibition competitive; reference (1) Ivanova et al 1980; cited from earlier work.

In assay [5] the target is cellobiase from Lenzites trabes. The settings on record: Table 4; inhibitor glucose; type of inhibition noncompetitive; reference (2) Herr et al 1978; cited from earlier work.
In assay [6] the target is purified cellobiase from Aspergillus terreus (ATCC 20514). Description: Glucose inhibition of purified cellobiase, PNPG as substrate. It counts as biochemical. As for the experimental part:
The β-glucosidase activity was routinely determined using p-nitrophenyl-β-D-glucoside (PNPG) as the substrate. Two milliliters of a 10 mM PNPG solution in 0.05M sodium citrate buffer solution (pH 4.8) were heated to 50° C. Then […] of the enzyme solution was added to the substrate and incubated for 15 minutes. After incubation, 3 ml of 1.0M aqueous sodium carbonate solution were added to stop the reaction and develop the color. The absorbance was read at 400 nm and the amount of p-nitrophenol liberated was determined from a standard curve. The time of incubation varied depending on the activity of the enzyme preparation tested. A unit (IU) of activity was defined as the amount of enzyme required to liberate one micromole of p-nitrophenol per minute from the substrate.
Glucose is a competitive inhibitor of the cellobiase enzyme from Aspergillus terreus. […] The Ki is the concentration of inhibitor required to slow the reaction down to one-half its maximum velocity, therefore, the larger the Ki the less inhibitory the inhibitor is.

The target of assay [7] is cellobiase from Phanerochaete chrysosporium. The settings on record: Table 4; inhibitor glucose; type of inhibition competitive; reference (3) Smith and Gold 1979; cited from earlier work.

For orientation: Km means the concentration of substrate that gives half-maximal velocity. Turning to `OC[C@H]1O[C@@H](O[C@H]2[C@H](O)[C@@H](O)C(O)O[C@@H]2CO)[C@H](O)[C@@H](O)[C@@H]1O` (stereo partly drawn) [cellobiose], the Km is 750 µM in assay [1]; 3300 µM in assay [2]; 400 µM in assay [3] (Table 3, read-out: Km); 400 µM in assay [3] (purified enzyme, pH 4.8, 50° C., read-out: affinity (Km) for cellobiose).
As a reminder, the Ki is the dissociation constant of the complex between target and ligand, obtained from inhibition or displacement. In the case of `OC[C@H]1OC(O)[C@H](O)[C@@H](O)[C@@H]1O` (stereo partly drawn) [glucose], the Ki is 3 mM in assay [4]; 2.7 mM in assay [5]; 3.5 mM in assay [6] (Table 4, inhibitor glucose, type of inhibition competitive, read-out: Ki); 3.5 mM in assay [6] (competitive inhibitor, p-nitrophenyl-β-D-glucoside as substrate, read-out: Ki dissociation constant for glucose); 0.5 mM in assay [7].

These data come from patent US4487831A, “Process for the conversion of cellulose to glucose” (Research Corporation, priority 1982, dated 1984).
